These results are taken from article PMC4403042, “Atrial-like cardiomyocytes from human pluripotent stem cells are a robust preclinical model for assessing atrial-selective pharmacology” (EMBO Molecular Medicine, 2015).

What all share (format): cell-based, human
The subject of test [1] is COUP-TFII (NR2F2). The test can be described thus: qPCR of COUP-TFII after RA treatment. To be noted: day 31 GFP+ CMs, RA-treated vs control differentiation. As for the experimental part: (§1) In order to determine the dynamics of COUP-TF expression following RA treatment, expression levels of both COUP-TFI and II were analyzed by qPCR at different time points and compared to control EBs. COUP-TFs were induced within 24 h of treatment with RA followed by dramatic increase in expression thereafter. […] The expression of COUP-TFs was maintained in differentiated CMs at day 31. COUP-TFI was expressed 20-fold higher, and COUP-TFII was enriched over 30-fold in hESC-atrial CMs compared to hESC-ventricular CMs (Fig4A and B). Antibodies selectively binding to COUP-TFI or COUP-TFII were used to verify the expression of these proteins. […]
(§2) atRA (Sigma) was diluted in DMSO to make a solution of 50 mmol/L which was further diluted in distilled water to have a stock solution of 0.0001 mol/L. atRA was used in a final concentration of 1 µmol/L in BPEL medium to direct atrial […]
(§3) Gene expression was determined on the HumanHT-12 v4 Expression BeadChip at ServiceXS, Leiden, The Netherlands. […]
(§4) For assessing gene expression by qPCR, cDNA was synthesized from approximately 1µ g of RNA obtained from three independent differentiations (iScript cDNA Synthesis Kit, BIO-RAD). Target identification was performed using SYBR Green (Applied Biosystems, Life technologies) and detected by CFX96 Real-Time PCR system (Bio-Rad). […]

For test [2], the system named is COUP-TFI (NR2F1). The test can be described thus: qPCR of COUP-TFI after RA treatment. Conditions: day 31 GFP+ CMs, RA-treated vs control differentiation. As to the method:
as §1, §2, §3, §4
A general note: In qPCR the cycle at which signal appears reflects the starting amount.

Test [3] deals with embryoid bodies (EBs). The test can be described thus: Beating frequency of embryoid bodies from CT or RA differentiations. To be noted: RA-treated EBs, N=16, 37 degrees; control 45/min. An excerpt:
EMBO Molecular Medicine Peer Review Process File - EMM-2014-04757
Please, discuss this finding.
The reviewer raises an important point and we have now discussed this finding on page-17 of the
the atrial-selective ion channel gene, KCNA5. These experiments also established that KCNJ3 and
KCNJ5 are regulated by COUP-TFII.
KCNJ3 and KCNJ5 in atrial CMs. Future studies aimed at dissecting the roles of COUP-TFI and
COUP-TFII during atrial differentiation are required to understand whether these genes act in
It also remains to be tested if
loss of COUP-TFI can be rescued by COUP-TFII and vice versa. However, since myocardial
ablation of COUP-TFII in the mouse results in a severe phenotype (25), it seems unlikely that
COUP-TFI can account for loss of COUP-TFII. Nonetheless, it is likely that deletion of both COUP-
TFI and COUP-TFII might result in a more severe phenotype”.
On page 5 a Fig S1G is introduced; this should be Fig S1F
This was an error, which has now been corrected.
Fig S2 is not introduced in the main text.
We apologize for the missing text describing Fig. S2. This is now included on page 6 of the revised
Fig 5 panel G label must be corrected. […]
a platform maintained at 37 degrees. We determined the beating frequency of N=16 EBs each. […]
rates recorded were 45/min in control EBs and 60/min in RA-treated EBs (Error bars represent […]

As to `CC1=C(/C=C/C(C)=C/C=C/C(C)=C/C(=O)O)C(C)(C)CCC1` [RA, all-trans retinoic acid], the “COUP-TFII mRNA, hESC-atrial vs hESC-ventricular CMs” value in test [1] was “over 30 fold”. The “COUP-TFI mRNA, hESC-atrial vs hESC-ventricular CMs” value in test [2] is reported as 20 fold. Also, the “beating frequency of EBs” value in test [3] was 60 min⁻¹.
